Each block holds one compound with its values, some of them ahead of it. Active and inactive are the calls of the source. No cut-off for these calls is given here.
Legend:
[1] = Intrinsic clearance in rat hepatocytes assessed per million cells; type: ADME, cell-based, Hepatocyte; conditions: read-out: CLH
[2] = Lipophilicity, logD of the compound at pH 7.4; type: physicochemical; conditions: buffer
[3] = target: T1, Very long chain fatty acid elongase 1 (Homo sapiens, UniProt Q9BW60); experiment: Inhibition of ELOVL1 in HEK293 cells assessed as reduction of C26:0 lipo phosphatidyl choline synthesis; type: cell-based
T1 sequence (Q9BW60 whole entry): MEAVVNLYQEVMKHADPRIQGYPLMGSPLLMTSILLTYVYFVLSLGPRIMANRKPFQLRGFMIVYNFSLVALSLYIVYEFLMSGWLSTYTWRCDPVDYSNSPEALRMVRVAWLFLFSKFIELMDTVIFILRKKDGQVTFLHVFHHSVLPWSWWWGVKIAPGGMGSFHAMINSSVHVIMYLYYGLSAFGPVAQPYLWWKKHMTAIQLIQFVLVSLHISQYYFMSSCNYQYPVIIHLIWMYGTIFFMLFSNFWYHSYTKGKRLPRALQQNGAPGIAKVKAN

[4] = target: T1, Very long chain fatty acid elongase 1; experiment: Inhibition of ELOVL1 (unknown origin)
[5] = Reduction in C26:0 LPC level in wild type mouse blood at 32 mg/kg, po qd and measured after 1 week relative to control; type: functional; design: scale not given: the % may be the effect or the level left; conditions: time 1 weeks
[6] = Inhibition of ELOVL4 in HEK293 cells by radiometric enzyme assay; type: cell-based, Homo sapiens
[7] = target: T2, Very long chain fatty acid elongase 1 (Homo sapiens) (UniProt Q9BW60); experiment: Inhibition of ELOVL1 in HEK293 cells assessed as increase in C20:0 lipo phosphatidyl choline synthesis at 100 nM in presence of 13C-labeled acetate measured after 48 hrs by mass spectroscopic analysis; type: cell-based
T2 sequence (whole entry): T1 sequence (Q9BW60 whole entry)

Cynomolgus monkey [8] = experiment: Reduction in C26:0/C16:0 LPC level in wild type Cynomolgus monkey blood at 50 mg/kg, po qd measured after 14 days relative to control; type: functional, Macaca fascicularis; design: scale not given: the % may be the effect or the level left; conditions: time 14 day
[9] = Toxicity in Cynomolgus monkey assessed as convulsion at >50 mg/kg/day, po qd measured after 14 days; type: organism-based, Macaca fascicularis; conditions: in vivo, 336 h, time 14 day
[10] = target: T2, Very long chain fatty acid elongase 1 (Homo sapiens); experiment: Inhibition of ELOVL1 in HEK293 cells assessed as reduction of C26:0 lipo phosphatidyl choline synthesis at 100 nM in presence of 13C-labeled acetate measured after 48 hrs by mass spectroscopic analysis; type: cell-based
[11] = target: T3, Very long chain fatty acid elongase 6 (Homo sapiens) (UniProt Q9H5J4); experiment: Inhibition of ELOVL6 in HEK293 cells assessed as reduction of C18:0 lipo phosphatidyl choline synthesis at 100 nM in presence of 13C-labeled acetate measured after 48 hrs by mass spectroscopic analysis; type: cell-based
T3 sequence (whole entry): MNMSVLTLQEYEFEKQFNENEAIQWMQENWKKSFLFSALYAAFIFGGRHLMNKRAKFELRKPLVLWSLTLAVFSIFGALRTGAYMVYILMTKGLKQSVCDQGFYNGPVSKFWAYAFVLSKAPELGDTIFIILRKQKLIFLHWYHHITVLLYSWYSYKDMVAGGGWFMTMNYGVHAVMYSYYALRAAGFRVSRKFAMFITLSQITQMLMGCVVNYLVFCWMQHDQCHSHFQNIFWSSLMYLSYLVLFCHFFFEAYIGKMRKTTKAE

[12] = Ocular toxicity in rat assessed as corneal opacities at 10 to 50 mg/kg/day, po qd measured after 8 weeks by macroscopic analysis; type: organism-based; conditions: in vivo, 1344 h, dose 10-50 mg/kg/day
Mus musculus [13] = experiment: Reduction in C26:0/C16:0 LPC level in ABCD1 knock out mouse blood at 1 to 32 mg/kg, po qd and measured after 1 week; type: functional, organism-based; conditions: dose 1-32 mg/kg, time 1.0 weeks
[14] = target: T2, Very long chain fatty acid elongase 1 (Homo sapiens); experiment: Inhibition of ELOVL1 in HEK293 cells assessed as reduction of C24:0 lipo phosphatidyl choline synthesis at 100 nM in presence of 13C-labeled acetate measured after 48 hrs by mass spectroscopic analysis; type: cell-based
[15] = Reduction in C26:0/C16:0 LPC level in ABCD1 knock out mouse blood at >=8 mg/kg, po qd and measured after 1 week relative to control; type: functional; design: scale not given: the % may be the effect or the level left; conditions: dose mg/kg >=8; time 1 weeks
HEK293 = experiment: Cytotoxicity against HEK293 cells assessed as reduction in cell viability at 100 nM measured after 48 hrs; type: cell-based; conditions: human, hek293, 48 h, 0.1 µM
Mus musculus [16] = experiment: Reduction in C26:0/C16:0 LPC level in ABCD1 knock out mouse CNS at 4 to 32 mg/kg, po qd and measured after 1 month; type: functional, organism-based; conditions: dose 4-32 mg/kg, time 1.0 months
Cynomolgus monkey [17] = experiment: Reduction in C26:0/C16:0 LPC level in wild type Cynomolgus monkey blood at 6.5 mg/kg, po qd measured after 14 days relative to control; type: functional, Macaca fascicularis; design: scale not given: the % may be the effect or the level left; conditions: time 14 day
[18] = target: T3, Very long chain fatty acid elongase 6 (Homo sapiens); experiment: Inhibition of ELOVL6 in HEK293 cells assessed as reduction of C16:0 lipo phosphatidyl choline synthesis at 100 nM in presence of 13C-labeled acetate measured after 48 hrs by mass spectroscopic analysis; type: cell-based
[19] = Reduction in C26:0/C16:0 LPC level in wild type Sprague-Dawley rat blood at 50 mg/kg, po qd measured after 28 days relative to control; type: functional; design: scale not given: the % may be the effect or the level left; conditions: time 28 day
[20] = Permeability of compound across apical to basolateral side in MDCK-MDR1 cells; type: ADME, cell-based, Canis lupus familiaris; conditions: dog, read-out: permeability
[21] = Half life in rat at 1 mg/kg, iv; type: ADME, organism-based; conditions: in vivo
[22] = Clearance in rat at 1 mg/kg, iv; type: ADME, organism-based; conditions: in vivo
[23] = Oral bioavailability in rat at 3 mg/kg; type: ADME, organism-based; conditions: in vivo
[24] = Reduction in C26:0 LPC level in wild type mouse blood at 16 mg/kg, po qd and measured after 1 week relative to control; type: functional; design: scale not given: the % may be the effect or the level left; conditions: time 1 weeks
[25] = target: 3',5'-cyclic phosphodiesterase (Homo sapiens) (UniProt O76074+P27815+Q14432+Q13956+P18545+O00408+Q13946+P54750+O76083+P35913+Q08499+Q07343+O43924+P16499+Q13370+P51160+O95263+Q9Y233+Q01064+Q08493+Q14123+O60658+Q9NP56); experiment: Inhibition of human PDE4 at 10 uM relative to control; type: protein assay
[26] = target: Voltage-gated inwardly rectifying potassium channel KCNH2 (Homo sapiens, UniProt Q12809); experiment: Inhibition of human ERG
[27] = target: Kappa-type opioid receptor (Homo sapiens) (UniProt P41145); experiment: Inhibition of human kappa opioid receptor at 10 uM relative to control
[28] = Reduction in C26:0 LPC level in wild type mouse blood at 4 mg/kg, po qd and measured after 1 week relative to control; type: functional; design: scale not given: the % may be the effect or the level left; conditions: time 1 weeks
[29] = Inhibition of ELOVL7 in HEK293 cells by radiometric enzyme assay; type: cell-based, Homo sapiens
[30] = Reduction in C26:0/C16:0 LPC level in wild type Sprague-Dawley rat blood at 10 mg/kg, po qd measured after 28 days relative to control; type: functional; design: scale not given: the % may be the effect or the level left; conditions: time 28 day
[31] = Reduction in C26:0/C16:0 LPC level in ABCD1 knock out mouse CNS at 32 mg/kg, po qd and measured after 3 months relative to control; type: functional; design: scale not given: the % may be the effect or the level left; conditions: 2190 h
[32] = target: T4, Very long chain fatty acid elongase 6 (Homo sapiens, UniProt Q9H5J4); experiment: Inhibition of ELOVL6 in HEK293 cells by radiometric enzyme assay; type: cell-based
T4 sequence (Q9H5J4 whole entry): T3 sequence (whole entry)

MDR1 = experiment: Efflux ratio of permeability in dog MDCK-MDR1 cells; type: ADME, cell-based, Canis lupus familiaris
[33] = Reduction in C26:0/C16:0 LPC level in ABCD1 knock out mouse CNS at 10 mg/kg, po qd and measured after 8 months relative to control; type: functional; design: scale not given: the % may be the effect or the level left; conditions: 5840 h
[34] = Reduction in C26:0/C16:0 LPC level in ABCD1 knock out mouse CNS at 10 mg/kg, po qd and measured after 3 months relative to control; type: functional; design: scale not given: the % may be the effect or the level left; conditions: 2190 h

Sequence of Kappa-type opioid receptor (Homo sapiens) (P41145 whole entry): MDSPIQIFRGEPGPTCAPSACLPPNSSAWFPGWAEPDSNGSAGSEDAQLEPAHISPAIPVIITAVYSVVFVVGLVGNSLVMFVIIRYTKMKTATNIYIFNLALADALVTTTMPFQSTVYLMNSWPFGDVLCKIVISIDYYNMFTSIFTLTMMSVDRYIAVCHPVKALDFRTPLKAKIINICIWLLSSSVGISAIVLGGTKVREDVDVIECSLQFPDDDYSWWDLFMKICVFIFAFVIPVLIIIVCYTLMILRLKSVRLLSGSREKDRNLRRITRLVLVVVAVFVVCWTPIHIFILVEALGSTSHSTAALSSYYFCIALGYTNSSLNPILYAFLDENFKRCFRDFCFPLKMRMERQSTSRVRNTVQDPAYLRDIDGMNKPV
Sequence of Voltage-gated inwardly rectifying potassium channel KCNH2 (Q12809 whole entry): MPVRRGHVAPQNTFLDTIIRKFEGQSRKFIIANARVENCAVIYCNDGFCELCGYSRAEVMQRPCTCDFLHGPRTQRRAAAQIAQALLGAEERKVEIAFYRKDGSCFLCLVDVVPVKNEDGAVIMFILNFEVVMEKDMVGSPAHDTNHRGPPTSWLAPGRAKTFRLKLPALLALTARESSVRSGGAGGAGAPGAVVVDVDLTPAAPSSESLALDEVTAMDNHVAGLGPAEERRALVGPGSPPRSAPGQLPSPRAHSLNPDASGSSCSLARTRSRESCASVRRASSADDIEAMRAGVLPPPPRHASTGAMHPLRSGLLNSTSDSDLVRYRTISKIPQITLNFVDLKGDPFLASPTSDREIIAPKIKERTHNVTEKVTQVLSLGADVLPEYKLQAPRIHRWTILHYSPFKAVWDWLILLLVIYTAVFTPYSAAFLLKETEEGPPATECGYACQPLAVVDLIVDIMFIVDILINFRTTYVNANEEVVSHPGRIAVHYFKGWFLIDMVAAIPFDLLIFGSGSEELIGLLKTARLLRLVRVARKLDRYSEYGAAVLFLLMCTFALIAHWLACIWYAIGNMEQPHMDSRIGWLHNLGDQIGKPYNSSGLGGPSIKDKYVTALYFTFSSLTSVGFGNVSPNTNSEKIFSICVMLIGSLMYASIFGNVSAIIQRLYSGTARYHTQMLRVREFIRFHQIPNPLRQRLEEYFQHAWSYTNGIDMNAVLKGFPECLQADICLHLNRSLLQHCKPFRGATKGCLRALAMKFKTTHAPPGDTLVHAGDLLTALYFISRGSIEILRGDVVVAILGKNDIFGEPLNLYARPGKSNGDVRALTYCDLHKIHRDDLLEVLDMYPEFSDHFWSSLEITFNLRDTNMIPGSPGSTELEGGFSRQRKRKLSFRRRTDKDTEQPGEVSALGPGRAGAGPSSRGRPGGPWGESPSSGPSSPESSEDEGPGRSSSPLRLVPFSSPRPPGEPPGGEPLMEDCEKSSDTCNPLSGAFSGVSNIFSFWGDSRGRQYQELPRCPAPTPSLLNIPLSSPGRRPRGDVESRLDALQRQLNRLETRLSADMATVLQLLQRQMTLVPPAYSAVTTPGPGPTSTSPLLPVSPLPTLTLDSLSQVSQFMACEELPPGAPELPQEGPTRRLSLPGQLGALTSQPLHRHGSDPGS

- hepatocyte CLint [1]: 194 µL/min/1e6 cells
- logD [2]: 2.9
- IC50 [3]: 7 nM
SMILES: Cc1ccnn1CCCOc1cc(N2CCOC(C(F)(F)F)C2)ncn1 (stereo not given)

- hepatocyte CLint [1]: 111 µL/min/1e6 cells
- logD [2]: 3.8
- IC50 [3]: 7 nM
SMILES: Cc1ccnn1CCCOc1cc(N2CCOC(c3ccccc3)C2)ncn1 (stereo not given)

- IC50 [6]: > 50000 nM
- inhibition [7]: Active
- inhibition [10]: Active
- inhibition [11]: inactive
- inhibition [14]: Active
- hepatocyte CLint [1]: 20 µL/min/1e6 cells
- logD [2]: 3.3
- inhibition [18]: inactive
- Papp A→B [20]: 17.4 ×10⁻⁶ cm/s
- half-life [21]: 3.1 h
- clearance [22]: 20 mL/min/kg
- bioavailability [23]: 45%
- IC50 [3]: 0.4 nM
- inhibition [25]: 74%
- inhibition [27]: 54%
- IC50 [29]: > 50000 nM
- IC50 [32]: > 50000 nM
- efflux ratio (MDR1): 1
SMILES: c1ccc([C@H]2CN(c3cc(O[C@H]4C[C@@H](n5cccn5)C4)ncn3)CCO2)cc1
- Activity [5]: 70%
- Activity (Cynomolgus monkey [8]): 65%
- Activity [9]: Toxic
- Activity [12]: Toxic
- Activity (Mus musculus [13]): Active
- Activity [15]: 72%
- Activity (HEK293): Non-Toxic
- Activity (Mus musculus [16]): inactive
- Activity (Cynomolgus monkey [17]): 47%
- Activity [19]: 79%
- Activity [24]: 70%
- IC50 [26]: > 30000 nM
- Activity [28]: 45%
- Activity [30]: 78%
- Activity [31]: 27%

- hepatocyte CLint [1]: 40 µL/min/1e6 cells
- logD [2]: 1.3
- IC50 [3]: 230 nM
SMILES: Cc1ccnn1CCCOc1cc(N2C3COCC2C3)ncn1

- hepatocyte CLint [1]: 17 µL/min/1e6 cells
- logD [2]: 3.9
- IC50 [3]: 5 nM
SMILES: c1ccc([C@H]2CN(c3cc(O[C@H]4C[C@@H](c5ncco5)C4)ncn3)CCO2)cc1

- hepatocyte CLint [1]: 327 µL/min/1e6 cells
- logD [2]: 3.6
- IC50 [3]: 60 nM
SMILES: CN(c1cc(OCCc2ccc(F)cc2)ncn1)C1CCOC1 (stereo not given)

- hepatocyte CLint [1]: 273 µL/min/1e6 cells
- logD [2]: 5.3
- IC50 [3]: 230 nM
SMILES: Fc1ccc(CCOc2cc(N3CCCCCC3)ncn2)cc1

- hepatocyte CLint [1]: 273 µL/min/1e6 cells
- logD [2]: 3.9
- IC50 [3]: 430 nM
SMILES: Fc1ccc(CCOc2cc(N3CCCC3)ncn2)cc1

Second part, the compound before the results:

SMILES: Fc1ccc(CCOc2ccc(-c3cccnc3)cn2)cc1
- IC50 [4]: 21000 nM
- IC50 [3]: 6700 nM

SMILES: O=C(Nc1ccn(-c2ccnc(F)c2)n1)C1(c2ccccc2F)CC1
- Activity [33]: 65%
- Activity [34]: 34%

SMILES: c1ccc([C@H]2CN(c3cc(O[C@H]4C[C@@H](n5ccnn5)C4)ncn3)CCO2)cc1
- hepatocyte CLint [1]: 14 µL/min/1e6 cells
- logD [2]: 2.9
- IC50 [3]: 9 nM

SMILES: Fc1ccn([C@H]2C[C@H](c3cc(O[C@H]4C[C@@H](n5cccn5)C4)ncn3)C2)n1
- hepatocyte CLint [1]: 8.4 µL/min/1e6 cells
- logD [2]: 3.1
- IC50 [3]: 0.3 nM

SMILES: c1ccc([C@H]2CN(c3cc(O[C@H]4C[C@@H](c5nnco5)C4)ncn3)CCO2)cc1
- hepatocyte CLint [1]: 8 µL/min/1e6 cells
- logD [2]: 2.8
- IC50 [3]: 9 nM

SMILES: Fc1cnn([C@H]2C[C@H](c3cc(O[C@H]4C[C@@H](n5cccn5)C4)ncn3)C2)c1
- hepatocyte CLint [1]: 9.2 µL/min/1e6 cells
- logD [2]: 3.1
- IC50 [3]: 0.6 nM

From ChEMBL document CHEMBL5034039, “Discovery of Novel, Orally Bioavailable Pyrimidine Ether-Based Inhibitors of ELOVL1” (J Med Chem, 2021)
